Test results: PubChem BioAssay AID256 (DTP/NCI, 2004)
“And” between values parts separate entries of the source, which are not always exact repeats. Equal entries are not always repeated. Toxic doses and inconclusive results are not listed.

Test system: CD2F1 mice, L1210 leukemia ip, survival T/C
Assay: NCI In Vivo Anticancer Drug Screen. Data for tumor model L1210 Leukemia (intraperitoneal) in CD2F1 (CDF1) mice
Conditions: endpoint: mean survival time, higher = longer survival
How it was run: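 Activity against a transplanted murine tumor was judged by comparing the compound group with a vehicle group. The outcome in the treated animals was divided by that in the controls.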

[1] = dose: 100.0 mg/kg/injection, schedule: Q04DX003 (ip), vehicle: other
[2] = dose: 200.0 mg/kg/injection, schedule: Q04DX003 (ip), vehicle: other
[3] = dose: 400.0 mg/kg/injection, schedule: Q04DX003 (ip), vehicle: other
[4] = dose: 100.0 mg/kg/injection, schedule: Q04DX002 (ip), vehicle: saline with Tween-80
[5] = dose: 100.0 mg/kg/injection, schedule: Q04DX003 (ip), vehicle: saline
[6] = dose: 400.0 mg/kg/injection, schedule: Q04DX003 (ip), vehicle: saline
[7] = dose: 100.0 mg/kg/injection, schedule: Q04DX003 (ip), vehicle: saline with Tween-80
[8] = dose: 200.0 mg/kg/injection, schedule: Q04DX003 (ip), vehicle: saline with Tween-80
[9] = dose: 400.0 mg/kg/injection, schedule: Q04DX003 (ip), vehicle: saline with Tween-80
[10] = dose: 100.0 mg/kg/injection, schedule: Q01DX001 (ip), vehicle: saline with Tween-80
[11] = dose: 200.0 mg/kg/injection, schedule: Q01DX001 (ip), vehicle: saline with Tween-80
[12] = dose: 200.0 mg/kg/injection, schedule: Q04DX002 (ip), vehicle: saline with Tween-80
[13] = dose: 400.0 mg/kg/injection, schedule: Q04DX002 (ip), vehicle: saline with Tween-80

With `O=C(O)CCC1(CCC(=O)O)OCCO1.[Ag]` the T/C (dose: 9.5 mg/kg/injection, schedule: Q01DX009 (ip), vehicle: saline sonified) was 92 % of control, the T/C (dose: 18.75 mg/kg/injection, schedule: Q01DX009 (ip), vehicle: saline with Tween-80) was 92 % of control and the T/C (dose: 19.0 mg/kg/injection, schedule: Q01DX009 (ip), vehicle: saline sonified) was 95 % of control. For the same compound, the T/C (dose: 37.5 mg/kg/injection, schedule: Q01DX009 (ip), vehicle: saline with Tween-80) was 92 % of control and the T/C (dose: 38.0 mg/kg/injection, schedule: Q01DX009 (ip), vehicle: saline sonified) was 95 % of control.

In the case of `CCCCCCCCCC(=O)CCCCCCC`, the T/C [1] is reported as 105 % of control, the T/C [2] is reported as 92 % of control and the T/C [3] is reported as 107 % of control.

With `CC(C)OC(=O)c1cc([N+](=O)[O-])c(Sc2ncnc3nc[nH]c23)c([N+](=O)[O-])c1` the T/C (dose: 0.63 mg/kg/injection, schedule: Q01DX005 (ip), vehicle: other) was 109 % of control, the T/C (dose: 1.25 mg/kg/injection, schedule: Q01DX005 (ip), vehicle: other) was 119 % of control and the T/C (dose: 2.5 mg/kg/injection, schedule: Q01DX005 (ip), vehicle: other) was 114 % of control. For the same compound, the T/C (dose: 5.0 mg/kg/injection, schedule: Q01DX005 (ip), vehicle: other) was 124 % of control, the T/C (dose: 9.9 mg/kg/injection, schedule: Q01DX005 (ip), vehicle: other) was 115 % of control and the T/C (dose: 25.0 mg/kg/injection, schedule: Q01DX005 (ip), vehicle: other) was 157 % of control. The T/C (dose: 33.3 mg/kg/injection, schedule: Q01DX005 (ip), vehicle: other) was 158 % of control, the T/C (dose: 50.0 mg/kg/injection, schedule: Q01DX005 (ip), vehicle: other) was 151 % of control and 178 % of control and 184 % of control and the T/C (dose: 100.0 mg/kg/injection, schedule: Q01DX005 (ip), vehicle: other) was 89 % of control.

For `COc1ccc(Nc2ccc(C(=C3C=CC(=[N+](C)CCC#N)C=C3)c3ccc(N(C)CCC#N)cc3)cc2)cc1`, the T/C [4] was 90 % of control.

In the case of `Nc1ncnc2c1ncn2C1OC(CO)C(=C(Br)Br)C1O` (configuration not stated), the T/C (dose: 6.25 mg/kg/injection, schedule: Q01DX005 (ip), vehicle: distilled water + Tween-80) is reported as 103 % of control, the T/C (dose: 12.5 mg/kg/injection, schedule: Q01DX005 (ip), vehicle: distilled water + Tween-80) is reported as 100 % of control and the T/C (dose: 25.0 mg/kg/injection, schedule: Q01DX005 (ip), vehicle: distilled water + Tween-80) is reported as 97 % of control. For the same compound, the T/C (dose: 50.0 mg/kg/injection, schedule: Q01DX005 (ip), vehicle: distilled water + Tween-80) was 101 % of control and the T/C (dose: 100.0 mg/kg/injection, schedule: Q01DX005 (ip), vehicle: distilled water + Tween-80) was 100 % of control.

In the case of `O=C(O)C1C2CC3OC(=O)C1C3C2` (configuration not stated), the T/C [5] is reported as 94 % of control, the T/C (dose: 200.0 mg/kg/injection, schedule: Q04DX003 (ip), vehicle: saline) is reported as 93 % of control and the T/C [6] is reported as 96 % of control.

In the case of `O=C1c2ccccc2C(c2ccccc2)(c2ccccc2)N1c1ccccc1`, the T/C [7] is reported as 107 % of control, the T/C [8] is reported as 104 % of control and the T/C [9] is reported as 107 % of control.

With `CC(NC(=O)C(C)(Br)C1CCCCC1)c1ccccc1` (configuration not stated) the T/C [10] was 87 % of control and the T/C [11] was 91 % of control.

In the case of `O=C(O)c1ccc(C(=O)O)s1.[NH-]C1CCCCC1[NH-].[Pt+2]`, the T/C (dose: 2.5 mg/kg/injection, schedule: Q04DX003 (ip), vehicle: dextrose) is reported as 113 % of control, the T/C (dose: 5.0 mg/kg/injection, schedule: Q04DX003 (ip), vehicle: dextrose) is reported as 118 % of control and the T/C (dose: 20.0 mg/kg/injection, schedule: Q04DX003 (ip), vehicle: dextrose) is reported as 113 % of control.

With `CCC(N)c1ccc2c3c(cccc13)CC2` (configuration not stated) the T/C [10] was 89 % of control, the T/C [11] was 86 % of control and the T/C (dose: 400.0 mg/kg/injection, schedule: Q01DX001 (ip), vehicle: saline with Tween-80) was 89 % of control.

In the case of `CC1OC(=O)C(C(C)C)NC(=O)C(C(C)C)OC(=O)C(C(C)C)NC(=O)C(C)OC(=O)C(C(C)C)NC(=O)C(C(C)C)OC(=O)C(C(C)C)NC(=O)C(C)OC(=O)C(C(C)C)NC(=O)C(C(C)C)OC(=O)C(C(C)C)NC1=O` (configuration not stated), the T/C (dose: 1.25 mg/kg/injection, schedule: Q01DX009 (ip), vehicle: saline with Tween-80) is reported as 109 % of control, the T/C (dose: 2.5 mg/kg/injection, schedule: Q01DX009 (ip), vehicle: saline with Tween-80) is reported as 103 % of control and 107 % of control and the T/C (dose: 5.0 mg/kg/injection, schedule: Q01DX009 (ip), vehicle: saline with Tween-80) is reported as 103 % of control and 110 % of control. For the same compound, the T/C (dose: 10.0 mg/kg/injection, schedule: Q01DX009 (ip), vehicle: saline with Tween-80) was 106 % of control and the T/C (dose: 20.0 mg/kg/injection, schedule: Q01DX009 (ip), vehicle: saline with Tween-80) was 112 % of control.

In the case of `CCCCCCCCCCCCOC(=O)C[n+]1cccc(C(=O)NCc2ccccc2)c1`, the T/C (dose: 6.25 mg/kg/injection, schedule: Q04DX003 (ip), vehicle: saline with Tween-80) is reported as 108 % of control, the T/C (dose: 12.5 mg/kg/injection, schedule: Q04DX003 (ip), vehicle: saline with Tween-80) is reported as 104 % of control and the T/C (dose: 25.0 mg/kg/injection, schedule: Q04DX003 (ip), vehicle: saline with Tween-80) is reported as 106 % of control.

In the case of `O=C(C[n+]1cccc2ccccc21)c1ccc([N+](=O)[O-])cc1`, the T/C (dose: 25.0 mg/kg/injection, schedule: Q04DX002 (ip), vehicle: saline with Tween-80) is reported as 102 % of control, the T/C (dose: 50.0 mg/kg/injection, schedule: Q04DX002 (ip), vehicle: saline with Tween-80) is reported as 98 % of control and the T/C [4] is reported as 102 % of control.

`O=c1[nH]cc([N+](=O)[O-])c(=O)[nH]1` was tested, and the T/C [4] was 97 % of control, the T/C [12] was 97 % of control and the T/C [13] was 101 % of control.

For `CNC(=O)OCc1c(COC(=O)NC)c(C)n(-c2ccc(OC)cc2)c1C`, the T/C (dose: 3.12 mg/kg/injection, schedule: Q01DX009 (ip), vehicle: Klucel (hydroxypropylcellulose) (HPC)) was 101 % of control and 106 % of control, the T/C (dose: 6.25 mg/kg/injection, schedule: Q01DX009 (ip), vehicle: Klucel (hydroxypropylcellulose) (HPC)) was 101 % of control and 106 % of control and the T/C (dose: 12.5 mg/kg/injection, schedule: Q01DX009 (ip), vehicle: Klucel (hydroxypropylcellulose) (HPC)) was 113 % of control and 102 % of control. The T/C (dose: 25.0 mg/kg/injection, schedule: Q01DX009 (ip), vehicle: Klucel (hydroxypropylcellulose) (HPC)) was 121 % of control and 98 % of control, the T/C (dose: 50.0 mg/kg/injection, schedule: Q01DX009 (ip), vehicle: Klucel (hydroxypropylcellulose) (HPC)) was 116 % of control and 121 % of control and the T/C (dose: 100.0 mg/kg/injection, schedule: Q01DX009 (ip), vehicle: Klucel (hydroxypropylcellulose) (HPC)) was 87 % of control.

With `CCCCN(CCCC)CCNc1ccc(C)c2sc3ccccc3c(=O)c12` the T/C (dose: 50.0 mg/kg/injection, schedule: Q01DX001 (ip), vehicle: saline) was 91 % of control, the T/C (dose: 100.0 mg/kg/injection, schedule: Q01DX001 (ip), vehicle: saline) was 88 % of control and the T/C (dose: 100.0 mg/kg/injection, schedule: Q01DX009 (ip), vehicle: saline) was 101 % of control. For the same compound, the T/C [5] was 91 % of control, the T/C (dose: 200.0 mg/kg/injection, schedule: Q01DX001 (ip), vehicle: saline) was 91 % of control and the T/C (dose: 200.0 mg/kg/injection, schedule: Q01DX009 (ip), vehicle: saline) was 91 % of control. The T/C (dose: 400.0 mg/kg/injection, schedule: Q01DX001 (ip), vehicle: saline) was 88 % of control, the T/C (dose: 400.0 mg/kg/injection, schedule: Q01DX009 (ip), vehicle: saline) was 94 % of control and the T/C [6] was 87 % of control.

In the case of `CC(=O)NC1C(OC(C)=O)OC(COC(c2ccccc2)(c2ccccc2)c2ccccc2)C(OS(C)(=O)=O)C1OC(C)=O` (configuration not stated), the T/C (dose: 50.0 mg/kg/injection, schedule: Q04DX003 (ip), vehicle: saline with Tween-80) is reported as 95 % of control, the T/C [7] is reported as 103 % of control and the T/C [8] is reported as 101 % of control. For the same compound, the T/C [9] was 89 % of control.

For `CCNC(=O)OC(C)C`, the T/C [4] was 90 % of control, the T/C [12] was 102 % of control and the T/C [13] was 94 % of control.

`CCCCCCCCCCCCCCCC(=O)NCC[N+](C)(CC)CC` was tested, and the T/C (dose: 75.0 mg/kg/injection, schedule: Q01DX001 (ip), vehicle: saline) was 109 % of control.

With `CCCCCCCCCCCCc1ccc(NC(C)=O)cc1` the T/C [1] was 97 % of control, the T/C [2] was 95 % of control and the T/C [3] was 100 % of control.
